# Patent publication US20240148776A1, “TUMESCENT SOLUTION WITH B VITAMINS” (priority 2022, published 2024)
# Columns and labels:
# [1] = system: acute Herpes zoster (shingles); details: cited from earlier work
# [2] = Stability of vitamin B12 for injection and of its pink colour; assay type: physicochemical
# Description: When Klein placed a purchase order for their first vial of injectable B12, they had no idea that the solution would have a red/pink color. When 10 mg in 10 ml of B12 was added to 1,000 ml of TELTA (1:100 dilution of B12), the result was a TELTAB solution with a distinctive pink color. […] They thought the novel pink color would be memorable and an interesting topic of conversation. […] The next conceptual step was the idea that the pink color of TELTAB might be a clever marketing gimmick, which could distinguish TELTAB from all other bags of saline.
# [3] = system: postherpetic neuralgia (PHN); test: Tumescent treatment of patients with established postherpetic neuralgia (PHN); assay type: in vivo, human; details: B12 added to TEL[AT] in acute zoster
# From the text: “Hotspot pain” is the area within the dermatome where the zoster pain is clearly the most intense. […] “Elsewhere pain” is zoster pain that affects areas within the dermatome other than the hotspot.
Compound,reduction of zoster-related intensely painful itching compared to placebo ([1]; 2-week protocol of multiple daily injections) [%],stability of pink pigment over time [2],stability of nutritional function on exposure to light ([2]; light),incidence of PHN [3],"effect on pain of acute Herpes zoster compared to placebo ([1]; B12 1 mg/ml, 2 weeks)"
"Cc1ncc(C[n+]2csc(CCO)c2C)c(N)n1 [Undiluted vitamin B1, Thiamine]",30,,,,
Cobalamin [B12],,does not appear to fade over time,not stable when exposed to light,reduced the incidence of PHN,gradually reduce the pain of acute Herpes zoster
